For experiment [1], the system named is Mus musculus. Kind of experiment: In vivo antimalarial activity against Plasmodium berghei in mice (Mus musculus); Inactive. The class given is functional, organism-based.
Experiment [2] deals with Mus musculus. Description: Antimalarial activity against Plasmodium berghei evaluated in terms of mean survival time for mice (Mus musculus) at a dose of 80 mg/kg. The class given is functional.
The test system of experiment [3] is Mus musculus. Description: Antimalarial activity against Plasmodium berghei evaluated in terms of mean survival time for mice (Mus musculus) at a dose of 160 mg/kg. Type of experiment: functional.
Experiment [4] has as its system Mus musculus. Description: Antimalarial activity against Plasmodium berghei evaluated in terms of mean survival time for mice (Mus musculus) at a dose of 40 mg/kg. The class given is functional.
For experiment [5], the system named is Mus musculus. Kind of experiment: Anti-malarial activity against Plasmodium berghei evaluated in terms of mean survival time for mice (Mus musculus) at a dose of 20 mg/kg. Type of experiment: functional.
In experiment [6] the test system is Plasmodium falciparum. Kind of experiment: In vitro antimalarial activity for Plasmodium falciparum at 50 uM/well dose at 24 hrs in Schizont maturation assay. The class given is functional.
In experiment [7] the test system is Plasmodium falciparum. Kind of experiment: In vitro antimalarial activity for Plasmodium falciparum at 10 uM/well dose at 24 hrs in Schizont maturation assay. The class given is functional.
Experiment [8] relates to Plasmodium falciparum. Kind of experiment: In vitro antimalarial activity for Plasmodium falciparum at 1 uM/well dose at 24 hrs in Schizont maturation assay. Type of experiment: functional.
The subject of experiment [9] is Plasmodium falciparum. Description: In vitro antimalarial activity for Plasmodium falciparum at 5 uM/well dose at 24 hrs in Schizont maturation assay. Type of experiment: functional.
Experiment [10] deals with Plasmodium falciparum. Kind of experiment: In vitro antimalarial activity for Plasmodium falciparum at 100 uM/well dose at 24 hrs in Schizont maturation assay. The class given is functional.
Experiment [11] has as its system Plasmodium falciparum. Kind of experiment: In vitro antimalarial activity for Plasmodium falciparum at 500 uM/well dose at 24 hrs in Schizont maturation assay. The class given is functional.
For experiment [12], the system named is Plasmodium falciparum. Kind of experiment: In vitro inhibition of Plasmodium falciparum at 25 uM/well dose at 72 hrs in total parasite growth assay. Type of experiment: functional.
In experiment [13] the test system is Plasmodium falciparum. Description: In vitro inhibition of Plasmodium falciparum at 10 uM/well dose at 72 hrs in total parasite growth assay. Type of experiment: functional.
In experiment [14] the test system is Plasmodium falciparum. Description: In vitro inhibition of Plasmodium falciparum at 2.5 uM/well dose at 72 hrs in total parasite growth assay. Type of experiment: functional.
Experiment [15] deals with Plasmodium falciparum. Kind of experiment: In vitro inhibition of Plasmodium falciparum at 100 uM/well dose at 72 hrs in total parasite growth assay. The class given is functional.
Experiment [16] concerns Plasmodium falciparum. Description: In vitro inhibition of Plasmodium falciparum at 1.0 uM/well dose at 72 hrs in total parasite growth assay. The class given is functional.
The subject of experiment [17] is Plasmodium falciparum. Description: In vitro inhibition of Plasmodium falciparum at 5 uM/well dose at 72 hrs in total parasite growth assay. Type of experiment: functional.
Experiment [18] concerns Plasmodium falciparum. Kind of experiment: In vitro antimalarial activity for chloroquine-resistant Plasmodium falciparum at 0.25 uM/well dose at 24 hrs in Schizont maturation assay. Type of experiment: functional.
Experiment [19] concerns Plasmodium falciparum. Kind of experiment: In vitro inhibition of Plasmodium falciparum at 20 uM/well dose at 72 hrs in total parasite growth assay. Type of experiment: functional.
In experiment [20] the test system is Plasmodium falciparum. Kind of experiment: In vitro antimalarial activity for Plasmodium falciparum at 0.25 uM/well dose at 24 hrs in Schizont maturation assay. The class given is functional.
Experiment [21] concerns Plasmodium falciparum. Kind of experiment: In vitro antimalarial activity for chloroquine-resistant Plasmodium falciparum at 0.5 uM/well dose at 24 hrs in Schizont maturation assay. Type of experiment: functional.
Experiment [22] relates to Plasmodium falciparum. Description: In vitro antimalarial activity for Plasmodium falciparum at 20 uM/well dose at 24 hrs in Schizont maturation assay. Type of experiment: functional.
Experiment [23] concerns Plasmodium falciparum. Kind of experiment: In vitro antimalarial activity for chloroquine-resistant Plasmodium falciparum at 10 uM/well dose at 24 hrs in Schizont maturation assay. The class given is functional.
In experiment [24] the test system is Plasmodium falciparum. Description: In vitro antimalarial activity for chloroquine-resistant Plasmodium falciparum at 2.5 uM/well dose at 24 hrs in Schizont maturation assay. The class given is functional.
For experiment [25], the system named is Plasmodium falciparum. Description: In vitro antimalarial activity for chloroquine-resistant Plasmodium falciparum at 0.10 uM/well dose at 24 hrs in Schizont maturation assay. The class given is functional.
Experiment [26] has as its system Mus musculus. Kind of experiment: In vivo anti-malarial activity against Plasmodium berghei in mice (Mus musculus) at a dose of 160 mg/kg; Active. Type of experiment: functional, organism-based. Also noted: dose 160 mg/kg.
Experiment [27] relates to Plasmodium falciparum. Description: In vitro antimalarial activity for Plasmodium falciparum at 0.50 uM/well dose at 24 hrs in Schizont maturation assay. The class given is functional.
The test system of experiment [28] is Plasmodium falciparum. Kind of experiment: In vitro antimalarial activity for chloroquine-resistant Plasmodium falciparum at 100 uM/well dose at 24 hrs in Schizont maturation assay. The class given is functional.
Experiment [29] has as its system Plasmodium falciparum. Description: In vitro inhibition of Plasmodium falciparum at 0.5 uM/well dose at 72 hrs in total parasite growth assay. The class given is functional.
The test system of experiment [30] is Plasmodium falciparum. Description: In vitro antimalarial activity for chloroquine-resistant Plasmodium falciparum at 50 uM/well dose at 24 hrs in Schizont maturation assay. The class given is functional.
Experiment [31] has as its system Plasmodium falciparum. Kind of experiment: In vitro inhibition of chloroquine-resistant Plasmodium falciparum at 1.0 uM/well dose at 72 hrs in total parasite growth assay. Type of experiment: functional.
Experiment [32] concerns Plasmodium falciparum. Kind of experiment: In vitro antimalarial activity for chloroquine-resistant Plasmodium falciparum at 20 uM/well dose at 24 hrs in Schizont maturation assay. The class given is functional.
The test system of experiment [33] is Plasmodium falciparum. Description: In vitro antimalarial activity for chloroquine-resistant Plasmodium falciparum at 5 uM/well dose at 24 hrs in Schizont maturation assay. The class given is functional.
In experiment [34] the test system is Plasmodium falciparum. Kind of experiment: In vitro antimalarial activity for chloroquine-resistant Plasmodium falciparum at 1 uM/well dose at 24 hrs in Schizont maturation assay. Type of experiment: functional.
In experiment [35] the test system is Plasmodium falciparum. Description: In vitro inhibition of chloroquine-resistant Plasmodium falciparum at 0.25 uM/well dose at 72 hrs in total parasite growth assay. The class given is functional.
Experiment [36] relates to Plasmodium falciparum. Description: In vitro inhibition of chloroquine-resistant Plasmodium falciparum at 0.5 uM/well dose at 72 hrs in total parasite growth assay. The class given is functional.
Experiment [37] concerns Plasmodium falciparum. Description: In vitro inhibition of Plasmodium falciparum at 50 uM/well dose at 72 hrs in total parasite growth assay. Type of experiment: functional.
Experiment [38] deals with Plasmodium falciparum. Description: In vitro antimalarial activity for Plasmodium falciparum at 2.5 uM/well dose at 24 hrs in Schizont maturation assay. Type of experiment: functional.
Experiment [39] relates to Plasmodium falciparum. Kind of experiment: In vitro inhibition of Plasmodium falciparum at 0.25 uM/well dose at 72 hrs in total parasite growth assay. The class given is functional.
Experiment [40] deals with Plasmodium falciparum. Description: In vitro antimalarial activity for Plasmodium falciparum at 0.10 uM/well dose at 24 hrs in Schizont maturation assay. Type of experiment: functional.

Calls of active or inactive are those of the source. The rule behind the calls is not given here.

The source of these data is ChEMBL document CHEMBL1132520, “Antimalarial activity of 3-hydroxyalkyl-2-methylene-propionic acid derivatives” (1999).

As to `C=C(C(=O)OC)C(O)/C=C(\C)CCC=C(C)C` (centres undefined), the outcome in the experiment on Mus musculus [1] was inactive. Moreover, the Mean survival time in the experiment on Mus musculus [2] is 9.6 days; in the experiment with Mus musculus [3], 11.4 days; in the experiment with Mus musculus [4], 8.4 days; with Mus musculus [5] it was 7.2 days.
Take `C=C(C(=O)OC)C(O)c1ccc([N+](=O)[O-])cc1` (centres undefined): in the experiment with Plasmodium falciparum [6], the inhibition (as a rule, the percentage by which the read-out fell short of the control) at 50 µM stood at 52.6%. Moreover, testing at 10 µM in the experiment on Plasmodium falciparum [7] gave an inhibition of 44.7%. Moreover, in the experiment on Plasmodium falciparum [8], the inhibition at 1 µM was determined as 2.6%. In the experiment on Plasmodium falciparum [9], this compound returned an inhibition at 5 µM of 18.4%. Moreover, in the experiment on Plasmodium falciparum [10], the inhibition at 100 µM amounted to 81.6%. In the experiment with Plasmodium falciparum [11], this compound registered an inhibition at 500 µM of 100%.
`C=C(CCC(C)=O)C(C)=O`: the PGI amounted to 100% in the experiment with Plasmodium falciparum [12]; 100% in the experiment with Plasmodium falciparum [13]; 65.7% in the experiment on Plasmodium falciparum [14]; 100% in the experiment on Plasmodium falciparum [15]; 8.6% in the experiment on Plasmodium falciparum [16]; 88.6% in the experiment on Plasmodium falciparum [17]. The same compound showed an inhibition at 50 µM in the experiment on Plasmodium falciparum [6] of 100%. In the experiment with Plasmodium falciparum [7], at 10 µM the inhibition was 100%. This compound showed an inhibition at 1 µM in the experiment on Plasmodium falciparum [8] of 52.6%. The compound also returned an inhibition at 5 µM in the experiment with Plasmodium falciparum [9] of 100%. The same compound yielded an inhibition at 100 µM in the experiment on Plasmodium falciparum [10] of 100%. In the experiment on Plasmodium falciparum [11], this compound registered an inhibition at 500 µM of 100%.
On to `C=C(C#N)C(O)c1cc(OC)c(OC)c(OC)c1` (centres undefined), for which the PGI in the experiment on Plasmodium falciparum [12] was 100%; in the experiment with Plasmodium falciparum [13], 100%; in the experiment with Plasmodium falciparum [19], 100%; in the experiment on Plasmodium falciparum [14], 100%; with Plasmodium falciparum [15] it was 100%; with Plasmodium falciparum [29] it was 86%. Also, the PGI in the experiment on Plasmodium falciparum [16] is 94%; in the experiment with Plasmodium falciparum [31], 90%; with Plasmodium falciparum [35], 70%; in the experiment on Plasmodium falciparum [36], 81%; in the experiment on Plasmodium falciparum [37], 100%; in the experiment on Plasmodium falciparum [39], 73%. Moreover, in the experiment on Plasmodium falciparum [17], the PGI came out at 100%. In addition, the inhibition at 0.25 µM in the experiment with Plasmodium falciparum [18] and in the experiment with Plasmodium falciparum [20] was 30% each time. Besides, the inhibition at 50 µM in the experiment on Plasmodium falciparum [6] and in the experiment with Plasmodium falciparum [30] was 100% throughout. Also, the inhibition at 10 µM in the experiment on Plasmodium falciparum [7] and with Plasmodium falciparum [23] was 100% each time. Further, the figures for the inhibition at 0.5 µM in the experiment with Plasmodium falciparum [21] and in the experiment with Plasmodium falciparum [27] were 48.6% and 42.4%, respectively. The inhibition at 20 µM in the experiment with Plasmodium falciparum [22] and in the experiment on Plasmodium falciparum [32] was 100% in each case. Also, the inhibition at 2.5 µM came out at 69% with Plasmodium falciparum [24] and 76.5% in the experiment with Plasmodium falciparum [38]. Moreover, the inhibition at 0.1 µM with Plasmodium falciparum [25] worked out at 4.2%; with Plasmodium falciparum [40], 0%. Moreover, the inhibition at 1 µM in the experiment on Plasmodium falciparum [8] was 64%; with Plasmodium falciparum [34], 65%. The inhibition at 5 µM came out at 82.4% with Plasmodium falciparum [9] and 81% with Plasmodium falciparum [33]. In the experiment with Mus musculus [26], the result was Active. The inhibition at 100 µM with Plasmodium falciparum [28] and in the experiment on Plasmodium falciparum [10] was 100% in each case. In addition, the Mean survival time was 10.4 days with Mus musculus [2], 12.4 days in the experiment on Mus musculus [3], 7.6 days in the experiment on Mus musculus [4] and 6 days with Mus musculus [5]. In the experiment on Plasmodium falciparum [11], this compound displayed an inhibition at 500 µM of 100%.
Regarding `C=C(C#N)C(O)/C=C(\C)CCC=C(C)C` (centres undefined), the outcome in the experiment on Mus musculus [1] was inactive. The Mean survival time with Mus musculus [2] amounted to 9.8 days; with Mus musculus [3], 11.6 days; with Mus musculus [4], 8.6 days; in the experiment with Mus musculus [5], 7.3 days.
In the case of `C=C(C(=O)OC)C(O)c1ccco1` (centres undefined), the PGI is given as 100% with Plasmodium falciparum [12]; 98% in the experiment on Plasmodium falciparum [13]; 42.8% in the experiment on Plasmodium falciparum [14]; 100% in the experiment on Plasmodium falciparum [15]; 20% with Plasmodium falciparum [16]; 0% with Plasmodium falciparum [39]. Moreover, the PGI in the experiment with Plasmodium falciparum [17] is reported as 85.7%.
